Patent publication US20220096431A1, “PHARMACEUTICAL COMPOSITION AND METHOD FOR PREVENTING, TREATING AND DIAGNOSING A NEURODEGENERATIVE DISEASE” (BUDDHIST TZU CHI MEDICAL FOUNDATION, priority 2020, published 2022)
Entries after “also recorded” stand apart in the source; their conditions may differ.

Tests used:
SH-SY5Y [1] = test: MTT cell viability of SH-SY5Y cells; details: n-Bp 100 μM, vitamin C 200 μM
Description: (§3) Then, the cell viability is detected by a cell survival test using (3-(4,5-dimethylthiazol-2-yl)-2,5-diphenyltetrazolium bromide (MTT) assay.

Aβ1-42 = test: ELISA of Aβ1-42 in the medium of Ts-21 iPSCs; format: cell-based, human; details: 100 μM n-BP
3xTg AD mice [2] = test: Morris water maze test in AD-3xTg mice; format: in vivo
Experimental: Red dot, starting point of the swim; green dot, end point of the swim.
(§1) N=4 for wild-type and 10 mg/kg donepezil-treated 3xTg mice. N=6 for vehicle-treated 3xTg mice, 60 mg/kg n-BP-treated 3xTg mice, and 120 mg/kg n-BP-treated 3xTg mice. *p-value<0.05, **p-value<0.01 (Student's t-test). […] After 4-12 months, the B6 (C57/BL6) control mice have no AP accumulation (Green color).
The mice behavioral experiment using Morris water maze is a classical test to detect short-term memory and complex memory. Through its behavior, it can be determined whether there is a difference in memory after drug treatment. […] Two sessions were conducted on Day 1 as follows: (1) mice were placed in the swimming pool to adapt to the environment for a training duration of 120 seconds; (2) a hidden rest platform was added to the pool at a precise location in the northwest corner of the pool (blue diamond in the east; red circle in the west and yellow triangle in the south as shown in FIG. 7G) and the mice were allowed for to swim in the pool for a duration of another 120 seconds. If the rescue platform was not found by the mouse within the allocated time, the mouse was guided to the platform. The test for finding the rescue platform is carried out for the next four consecutive days, with each session lasting 90 seconds. The result is collected and analyzed.

[3] = test system: miR-29b-2-5p expression in C6-C99 cells; test: RT-qPCR of miR-29b-2-5p/miR-9-5p in C6-C99 cells; format: cell-based; details: 100 μM n-BP
Experimental: (§2) Then, C6-C99 cells were used to explore the effect of 100 μM n-butylidenephthalide (n-BP) on the expressions of miR-29b-2-5p, PSEN1, and Aβ1-42. […] Also shown in FIGS. 4G to 4I are the results of using miR-29b-2-5p inhibitor to evaluate whether n-BP inhibited PSEN1 and Aβ1-42 expression through miR-29b-2-5p. Specifically, miR-29b-2-5p inhibitor was transfected into C6-C99 cells and examined the inhibitory effect of n-BP treatment on PSEN1 and Aβ1-42 expression. It was observed that the addition of the miR-29b-2-5p inhibitor to C6-C99 cells abolished the 100 μM n-BP induced decrease in PSEN1 and Aβ1-42 expression.

SH-SY5Y [4] = test: Aβ1-42 poisoning experiment in SH-SY5Y cells (MTT); format: cell-based, human; details: n-butylidenephthalide 100 μM, vitamin C 200 μM, alone or in combination, Aβ1-42 1 μM
Description: as §3

3xTg transgenic mice = test: Amyloid accumulation in the brain of 3xTg transgenic mice, single and combined treatment (FIG. 11); format: in vivo; details: 3xTg mice; 60 mg/kg n-butylidenephthalide, 200 mg/kg vitamin C, alone or combined; vs olive oil control
3xTg AD mice [5] = test: 18F-FBB PET/CT of amyloid accumulation in the brain of 3xTg mice; format: in vivo
Experimental: as §1
FIGS. 8B and 8C show the comparison of VOI-based 18F-florbetaben SUVR(CTX/CB) and SUVR (HIP/CB) between B6 mice, vehicle-treated 3xTg transgenic, and n-BP-treated mice (60 mg/kg) aged 6 and 12 months. n=4 for B6 mice. n=5 for 3xTg mice. SUVR; standard uptake value ratio, M; months, cerebellum: CB.
The accumulation of amyloid in brain tissues can be detected by using an amyloid tracking agent, 18F-Florbetaben (FBB). 18F-FBB positron emission tomography-computed tomography (PET/CT) was used to explore the effect of n-BP treatment on AP accumulation in the hippocampus and cortex. The accumulation of amyloid will appear red in the picture. The quantity and location of AP accumulation in the brains of mice were determined using the tracking reagent 18F-FBB from birth to 4 to 12 months of age.

C6-C99 cells = test: Flow cytometry of C6-C99 cells (cumate-induced fluorescence); format: cell-based; details: 100 μM n-BP
Experimental: Red peak, fluorescence of C6-C99 cells without cumate activation (background). Green peak, with cumate. Blue peak, with n-BP.
as §2

[6] = test system: neurons differentiated from trisomy 21-iPSC; test: Aβ aggregation, phosphorylated Tau and miRNA in neurons differentiated from Ts21-iPSC; format: cell-based, human
Description: The neurons differentiated from the induced pluripotent stem cells produce hyperphosphorylated Tau (AT8). Excessive expression of AT8 affects winding signals and nutrient transmission of neurons; Aβ 1-42 is the main component of amyloid accumulation; microtubule-associated protein (microtubule-associated protein 2, MAP2) is a marker of neurons which mainly maintains the stability of dendritic neurons; tubulin (neuron-specific class III β-tubulin, TuJ1) is also a marker of neurons.
By genetic engineering, the four transcription factors Oct-4, Sox-2, c-Myc, and Klf-4 were delivered into adult cells and reverse-transcribed the cells into induced pluripotent stem cells (iPSC) carrying trisomy 21(Ts21) gene mutation.

[7] = test system: miR-29b-2-5p and PSEN1 expression in Ts-21 iPSCs; test: Real-time PCR of miR-29b-2-5p and PSEN1 in Ts-21 iPSCs; format: cell-based, human; details: 100 μM n-BP
Description: FIGS. 6A and 6B show the RT-qPCR analysis result of expression levels of miR-29b-2-5p/miR-9-5p and PSEN1/β-actin with or without […] n-BP. n=3 for each group.

[8] = test system: NICD, Aβ1-42 and PSEN1 in iPSC-derived human neurons; test: Western blot of NICD, Aβ1-42 and PSEN1 in iPSC-derived human neurons; format: cell-based; details: 100 μM n-BP, 48 h
Experimental: Because the Notch intracellular domain (NICD) is most relevant to the development of AD drugs, western blot analysis was conducted to explore the effect of 100 μM n-BP-induced inhibition of Notch cleavage in iPSC-derived human neurons and on the expressions of miR-29b-2-5p and PSEN1. […] The change in the expressions of miR-29b-2-5p, PSEN1, and Aβ1-42 was therefore consistent with those observed in n-BP-treated Ts-21 iPSCs.

CCCC=C1OC(=O)c2ccccc21 [n-BP, n-butylidenephthalide]
Cell survival (biosafety) (SH-SY5Y [1]): Neither butylidenephthalide nor vitamin C has any effect on cell survival
Aβ1-42 expression (ELISA, medium) (Aβ1-42): decrease
Movement trajectory (3xTg AD mice [2]; 120 mg n-BP/kg vs 60 mg n-BP/kg): shorter movement trajectory
Locating and arriving at the resting platform (3xTg AD mice [2]; 120 mg/kg n-BP, donepezil as positive control): able to quickly locate and arrive at the resting platform
Finding the rest platform after training (3xTg AD mice [2]; 60 and 120 mg n-BP/kg): could find the rest platform after training
Time required to find the platform (3xTg AD mice [2]; Day 5, 120 mg/kg n-BP, 10 mg donepezil/kg, vs untreated 3xTg mice): significantly lower
miR-29b-2-5p expression [3]: 358.95%±24.74%
Cell survival, protection against Aβ1-42 damage (SH-SY5Y [4]): has an effect on increasing cell survival
Therapeutic effect on accumulation of amyloid in the brain (3xTg transgenic mice): significantly improved therapeutic effect
Standardized uptake value ratio (SUVR) of FBB in the hippocampus and cortex (3xTg AD mice [5]; 120 mg n-BP/kg, age 12 months vs age 6 months): significantly lower
Aβ accumulation in hippocampus and cortex (18F-FBB PET/CT) (3xTg AD mice [5]; 3xTg AD mice, oral n-BP 60 or 120 mg/kg): less AP accumulation; also recorded: low levels of amyloid accumulation
Cumate expression / fluorescence of C6-C99 cells (C6-C99 cells): did not affect; also recorded: does not affect the fluorescence of C6-C99
Aβ aggregation ([6]; FIG. 5B): effectively reduces
Phosphorylation of Tau protein ([6]; FIG. 5B): effectively reduces
Expression level of miRNA-29b-2-5p ([6]; FIG. 5C): increased significantly
Aggregation of Aβ 1-42 (protein levels) ([6]; FIG. 5D): decreased
Protein expression of phosphorylated Tau protein ([6]; FIG. 5D): decreased
Expression levels of other AD-related genes BACE1, PSEN2, APOE3 and APOE4 [7]: without significant difference
PSEN1 expression (real-time PCR) [7]: 58.10%±29.28%
miR-29b-2-5p expression [7]: 12.38 fold
Aβ1-42 protein expression [8]: 35.02%±24.39%
Expression of proteins in NICD [8]: no change
PSEN1 protein expression [8]: 65.94%±4.52%
